“Also recorded” adds a separate entry of the source.
Columns and labels:
PP-2A = target: T1, PP-2A (Rattus norvegicus, UniProt P63331); test: PP-2A activity in extracts of treated hippocampal slice cultures; format: cell-based
T1 construct: from tissue; host or cells: organotypic culture of adult rat hippocampal slices; 16,000xg extract
Protocol: (§1) Organotypic cultures of rat hippocampal slices were prepared from 20-30 day old Wistar rats and cultured with the interface method as described previously (Stoppini, et al. 1991; Bahr, et al. 1995; Zhongrin, et al. 2000). The rats were anesthetized with ketamine (100 mg/kg body weight) and decapitated and the hippocampi were dissected out and sliced into 400 um coronal sections by a McIllwain tissue chopper. Select slices with uninterrupted bright transparent neuronal layers were plated, 1-3 slices/filter, onto Millicell CM filters (Millipore, Bedford, Mass.). For the first 2 days in vitro (DIV) cultures were maintained in 25% horse serum, 50% Basal Media-Eagle (BEM), 25% Eagle's Balanced Salt Solution (EBSS), 25 mM HEPES, 1 mM glutamine, 28 mM glucose, pH 7.2, at 32° C. in a 5% CO2 humidified atmosphere. The slice cultures were then switched to 25% horse serum, 50% BEM and EBSS modified so that the potassium concentration was 2.66 mM, for another 5 DIV. After 7 DIV, the cultures were maintained in physiological potassium containing 5% horse serum medium at 35° C. for at least 20 days before any treatment was applied. When the slices were treated, the reagents were applied into the culture medium. At different time points, the slices collected with a brush were washed twice in homogenizing buffer (50 mM HEPES, pH 7.0, 10 mM β-merceptoethanol [BME], 1 mM EDTA, 1 mM EGTA, 0.1 mM phenylmethyl sulfonyl fluoride [PMSF], 2.0 mM benzamidine and 2.0 μg/ml each of aprotinin, leupeptin and pepstatin) and homogenized at 4° C. using a Teflon-glass homogenizer. The homogenate was then divided into two parts, one was centrifuged at 16000×g for 15 min and the supernatant was used to assay activities of PP-2A and PP-1. The rest of the homogenate was diluted 1:1 with a phosphatase inhibitor cocktail (20 mM β-glycerophosphate, 2 mM Na3VO4 and 100 mM NaF, pH 7.0) and either used for Western blots or centrifuged at 16000×g for 15 min and the resulting supernatant used to determine the kinase activities.
Activities of PP-2A and PP-1 were assayed towards [^32P] phosphorylase-a as a substrate as described previously (Gong, et al. 1994). The phosphatase activity was assayed in 20 μl of reaction mixture containing 50 mM Tris, pH 7.0, 10 mM BME, 0.1 mM EDTA, 7.5 mM caffeine, 7.5 ng/μl [^32P]phosphorylase-a and 0.06 mg/ml slice culture extract. The reaction was started by adding ^32P-phosphorylase-a. After incubation for 30 min at 30° C., 7 μl of the reaction mixture was spotted on to 31 ETCHR chromatography paper which had been prespotted with 10 μl stop solution (4 mM ATP+20% TCA). Then the ^32p released was separated from the protein-incorporated ^32P by paper chromatography in 5% TCA and 0.2 M NaCl, paper strips dried, cut and counted by Cerenkov radiation. A PP-1 specific inhibitor, inhibitor-1 (Hitken, et al. 1982) was included in the assays for PP-2A activity. PP-1 activity was calculated by subtracting the PP-2A activity from the total phosphorylase-a phosphatase activity (PP-1/PP-2A) assayed in the absence of inhibitor-1.

CaMKII = CaMKII activity in extracts of treated hippocampal slice cultures; format: cell-based, rat
Protocol: as §1
CaMKII activity was measured in 25 μl of buffer containing 50 mM HEPES, pH 7.5, 10 mM MgCl2, 2.0 mM CaCl2, 10 mM BME, 10 μg/ml calmodulin (CaM), 20 μM syntide (Sigma, St Louis Mo., USA), 0.06 mg/ml slice extract and 200 μM [γ^32P]ATP. The reaction was initiated by adding [γ32p] ATP. After incubation for 10 min at 30° C., 10 μl reaction mixture was removed and spotted on to phosphocellulose membrane. The membrane was then washed five times in 1% phosphoric acid to remove non-protein incorporated ^32P, dried and counted by Cerenkov radiation. The activity of PKA was determined as above except the reaction mixture contained 70 mM NaHPO4, pH 6.8, 14 mM MgCl2, 1.4 mM EDTA, 30 μM malantide (Sigma, St Louis, Mo., USA), 200 μM [γ^32p] ATP and 0.06 mg/ml slice extract.

MAPK = MAPK activity in extracts of treated hippocampal slice cultures; format: cell-based, rat
Protocol: as §1, with “The” for “Organotypic cultures of rat hippocampal slices were prepared from 20-30 day old Wistar rats and cultured with the interface method as described previously (Stoppini, et al. 1991; Bahr, et al. 1995; Zhongrin, et al. 2000). The”, “For the first 2 days in vitro (DIV) cultures were maintained in 25% horse serum, 50% Basal Media-Eagle (BEM), 25% Eagle's Balanced Salt Solution (EBSS), 25 mM HEPES, 1 mM glutamine, 28 mM glucose, pH 7.2, at 32° C. in a 5% CO2 humidified atmosphere. The slice cultures were then switched to 25% horse serum, 50% BEM and EBSS modified so that the potassium concentration was 2.66 mM, for another 5 DIV.” left out
Immobilized protein G (Pierce, Rockford, Ill.), 20 μl, was mixed in 50 mM Tris, pH 7.4, 150 mM NACl, 10 mM NaF, 1.0 mM Na3VO4, 2.0 mM EGTA, 1 mM PMSF, 5 μg/ml leupeptin, 5 μg/ml aprotinin, 2 μg/ml pepstatin, 25 μg/ml phosphoramidon. After incubation at 4° C. overnight, the mixture was centrifuged and the beads were washed three times. The beads were then resuspended in 50 mM Tris, pH 7.4, containing 10 mM MgCl2. MAPK substrate peptide (UBI, Lake Placid, N.Y.) was employed for the MAPK assay. […]

tau = test: Tau phosphorylation by radioimmuno-dot-blots and 125I-Western blots of slice homogenates; format: cell-based, rat; details: 0.3 mM glutamate, 1 h
Protocol: as §1, with “The” for “Organotypic cultures of rat hippocampal slices were prepared from 20-30 day old Wistar rats and cultured with the interface method as described previously (Stoppini, et al. 1991; Bahr, et al. 1995; Zhongrin, et al. 2000). The”, “For the first 2 days in vitro (DIV) cultures were maintained in 25% horse serum, 50% Basal Media-Eagle (BEM), 25% Eagle's Balanced Salt Solution (EBSS), 25 mM HEPES, 1 mM glutamine, 28 mM glucose, pH 7.2, at 32° C. in a 5% CO2 humidified atmosphere. The slice cultures were then switched to 25% horse serum, 50% BEM and EBSS modified so that the potassium concentration was 2.66 mM, for another 5 DIV.” left out
Triplicate samples of each homogenate were applied to nitrocellulose membrane (Schleicher and Schuell, Keene, N.H.) and dried at 37° C.

T1 sequence (P63331 whole entry): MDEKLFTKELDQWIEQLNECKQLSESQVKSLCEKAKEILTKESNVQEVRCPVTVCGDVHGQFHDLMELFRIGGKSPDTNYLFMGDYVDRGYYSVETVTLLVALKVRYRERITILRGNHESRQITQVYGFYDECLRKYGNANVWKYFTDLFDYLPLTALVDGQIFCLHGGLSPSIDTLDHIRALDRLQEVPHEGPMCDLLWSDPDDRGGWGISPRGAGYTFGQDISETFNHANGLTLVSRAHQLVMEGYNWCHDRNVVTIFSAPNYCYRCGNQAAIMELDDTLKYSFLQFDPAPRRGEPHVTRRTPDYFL

SMILES: C[C@]12N[C@H](Cc3ccccc31)c1ccccc12 [MK801]
- effect on PP-2A activity (PP-2A; after 0.3 mM glutamate 1 h, 10 μM Memantine or 15 μM MK801): no effect
- CaMKII activity after replacement of glutamate (CaMKII; after 0.3 mM glutamate, fresh medium with or without 10 μM Memantine or 15 μM MK801): restored the CaMKII activity to normal level
- effect on MAP kinase activity (MAPK; after 0.3 mM glutamate, 10 μM Memantine or 15 μM MK801): no effect

SMILES: N[C@@H](CCC(=O)O)C(=O)O [glutamate]
- change in PP-2A activity (PP-2A; 0.3 mM glutamate, 1 h): did not induce any detectable change; also recorded: not accompanied by any changes; also recorded: without any effect
- CaMKII activity as % of control (CaMKII; 0.3 mM glutamate, 1 h): ~180%
- change in CaMKII activity (CaMKII; 0.3 mM glutamate, 1 h): marked increase
- change in MAPK activity (MAPK; 0.3 mM glutamate, 1 h): did not induce any detectable change; also recorded: not accompanied by any changes; also recorded: without any effect
- phosphorylation of tau at Ser-262 (tau): increased markedly
